Laboratory results taken from US10053451B2, “Heterocyclic estrogen receptor modulators and uses thereof” (priority 2015, dated 2018).

What was measured:
Type in all cases: cell-based
[1] = test system: MCF-7 cells; assay: Breast Cancer Cell Viability Assay (CellTiter-Glo); conditions: 5 days of compound exposure; for IC50: Homo sapiens, MCF7, 120 h, read-out: MCF7 viab IC50
Protocol: The following day a 10 point, serial 1:5 dilution of each compound was added to the cells in 16 μL at a final concentration ranging from 10-0.00000 μM. After 5 days of compound exposure, 16 μL of CellTiter-GLo (Promega, Madison Wis.) was added to the cells, and the relative luminescence units (RLUs) of each well were determined. CellTiter-Glo added to 32 μL of medium without cells was used to obtain a background value.

[2] = target: T1, ER-α (Homo sapiens, UniProt P03372); assay: ER-α In Cell Western Assay; conditions: MCF7 cells, 4 hours post compound addition, SP1 anti-ER antibody; read-out: ICW (SP1) max response
T1 construct: MCF7 cells were trypsinized and washed twice; endogenous in cells; host or cells: MCF7 breast cancer cells
T1 sequence (P03372 1-595): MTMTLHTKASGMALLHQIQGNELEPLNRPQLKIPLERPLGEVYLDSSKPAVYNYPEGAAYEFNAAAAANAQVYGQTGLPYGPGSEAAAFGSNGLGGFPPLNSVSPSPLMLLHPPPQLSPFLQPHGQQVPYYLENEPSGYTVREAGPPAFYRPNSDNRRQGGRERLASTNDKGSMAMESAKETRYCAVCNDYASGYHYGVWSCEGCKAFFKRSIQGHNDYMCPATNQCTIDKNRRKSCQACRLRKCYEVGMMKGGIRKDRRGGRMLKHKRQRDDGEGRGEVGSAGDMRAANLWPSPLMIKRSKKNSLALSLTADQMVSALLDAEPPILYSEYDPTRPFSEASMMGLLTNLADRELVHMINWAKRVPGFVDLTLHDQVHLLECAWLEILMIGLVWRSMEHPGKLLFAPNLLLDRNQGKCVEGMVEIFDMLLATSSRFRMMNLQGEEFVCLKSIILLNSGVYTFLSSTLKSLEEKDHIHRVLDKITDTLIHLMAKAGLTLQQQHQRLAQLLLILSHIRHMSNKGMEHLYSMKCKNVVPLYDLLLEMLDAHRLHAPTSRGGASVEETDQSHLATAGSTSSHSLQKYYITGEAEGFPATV
Protocol: MCF7 cells were trypsinized and washed twice in Phenol Red Free RPMI containing 5% Charcoal Dextran Stripped serum with 20 mM HEPES and NEAA, then adjusted to a concentration of 200,000 cells per mL with the same medium. Next, 16 μL of the cell suspension (3200 cells) was added to each well of a poly-D-lysine coated 384 well plate, and the cells were incubated at 37° C. over 4 days to allow the cells to adhere and grow. […] At 4 hours post compound addition, the cells were fixed by adding 16 μL of 30% formalin to the 32 μL of cells and compound (10% formalin final concentration) for 20 minutes. Cells were then washed twice with PBS Tween 0.1% and then permeabilized in PBS 0.1% Triton (50 μl/well) for additional 15 minutes. The PBS 0.1% triton was decanted, and the cells were washed: LI-COR blocking buffer (50 μL/well) was added, the plate was spun at 3000 rpm, and then the blocking buffer was decanted. Additional LI-COR blocking buffer (50 μL/well) was added, and the cells were incubated overnight at 4° C. The blocking buffer was decanted, and the cells were incubated overnight at 4° C. with SP1 (Thermo Scientific) anti-ER rabbit monoclonal antibody diluted 1:1000 in LI-COR blocking buffer/0.1% Tween-20. Wells which were treated with blocking buffer with Tween but no antibody were used as a background control. Wells were washed twice with PBS Tween 0.1% to remove free SP1 antibodies, and the cells were incubated at room temp for 60-90 minutes in LI-COR goat anti-rabbit IRDye™ 800CW (1:1000) and DRAQ5 DNA dye (1:10000 of 5 mM stock solution) diluted in LI-COR blocking buffer containing 0.1% Tween-20 and 0.01% SDS. Cells were then washed with 0.1% Tween-20/PBS three times. Plates were scanned on a LI-COR Odyssey infrared imaging system. Integrated intensities in the 800 nm channel and 700 nm channel were measured to determine levels of ER-α and DNA respectively. Percent ER levels were determined as follows: (Integrated intensity […] sample/integrated intensity 700 nm sample)/(Integrated intensity 800 nm untreated cells/integrated intensity 700 nm untreated cells)×100=% ER levels.

[3] = target: T2, estrogen receptor alpha (ESR1) (Homo sapiens, UniProt P03372); assay: Breast Cancer Cell ERa High Content Fluorescence Imaging Assay (ER-alpha MCF7 Assay); conditions: MCF7 cells, 4 hours; plateau of maximal effect; DMSO = 0%, 5 nM Fulvestrant = 100% change in ESR1
T2 construct: MCF7 cells were trypsinized and washed twice; endogenous in cells; host or cells: MCF7 breast cancer cells
T2 sequence (P03372 1-595): T1 sequence (P03372 1-595)
Protocol: Cell plates were incubated at 37° C., for 4 hours. Fixation and permeabilization were carried out using a Biotek EL406 plate washer and dispenser as follows. […] Samples were incubated 30 minutes. Well contents was aspirated and 50 uL/well of Phosphate Buffered Saline (PBS) containing 0.5% w/v bovine serum albumen, 0.5% v/v Triton X-100 (Antibody Dilution Buffer) was added to each well. Samples were incubated for 30 minutes. Well contents were aspirated and washed 3 times with 100 uL/well of PBS. Immunofluorescence staining of estrogen receptor alpha (ESR1) was carried out using a Biotek EL406 plate washer and dispenser as follows. […] Samples were incubated for 2 hours at room temperature. Samples were washed 4 times with 100 uL/well of PBS. […] Samples were incubated for 2 hours at room temperature. Samples were washed 3 times with 100 uL/well of PBS using a Biotek EL406. Quantitative fluorescence imaging of ESR1 was carried out using a Cellomics Arrayscan V (Thermo). […] Channel 1 (DNA stain) was used to define the nuclear region (Circ). […] The “Robust Fit” method was used to define the inflexion point of curve (EC50) and the plateau of the maximal effect (Sinf).

Structure (SMILES) | MCF7 viab max response [1] | IC50 [1] [nM] | Emax [2] [%] | ER-alpha MCF7 Sinf (%) [3] [%]
CC1=C(c2cccc(O)c2)C(c2ccc(OCCN3CCCC3)nc2)Oc2ccc(O)cc21 (stereo not shown) [Example 1, 3-(3-Hydroxyphenyl)-4-methyl-2-(6-(2-(pyrrolidin-1-yl)ethoxy)pyridin-3-yl)-2H-chromen-6-ol] | 53.6 | 0.18 | 65.9 | 
CC1=C(c2cccc(O)c2)C(c2ccc(OC[C@H](C)N3CC[C@@H](C)C3)nc2)Oc2ccc(O)cc21 (stereo partly drawn) [Example 2, 3-(3-Hydroxyphenyl)-4-methyl-2-(6-((S)-2-((R)-3-methylpyrrolidin-1-yl)propoxy)pyridin-3-yl)-2H-chromen-6-ol] | 56.9 | 0.13 | 76.1 | 
CC1=C(c2cccc(O)c2)C(c2cnc(OC[C@H](C)N3CC[C@@H](C)C3)cn2)Oc2ccc(O)cc21 (stereo partly drawn) [Example 3, 3-(3-Hydroxyphenyl)-4-methyl-2-(5-((S)-2-((R)-3-methylpyrrolidin-1-yl)propoxy)pyrazin-2-yl)-2H-chromen-6-ol] | 61.1 | 0.66 | 83.3 | 
CC1=C(c2cccc(O)c2)C(c2cnc(OCCN3CCCC3)cn2)Oc2ccc(O)cc21 (stereo not shown) [Example 4, 3-(3-Hydroxyphenyl)-4-methyl-2-(5-(2-(pyrrolidin-1-yl)ethoxy)pyrazin-2-yl)-2H-chromen-6-ol] | 49.5 | 0.36 | 70.1 | 
CC1=C(c2cccc(O)c2)C(c2ccc(OC[C@H](C)N3CC[C@@H](C)C3)cn2)Oc2ccc(O)cc21 (stereo partly drawn) [Example 5, 3-(3-Hydroxyphenyl)-4-methyl-2-(5-((S)-2-((R)-3-methylpyrrolidin-1-yl)propoxy)pyridin-2-yl)-2H-chromen-6-ol] | 64.2 | 1.23 | 86.7 | 
CC1=C(c2cccc(O)c2)C(c2ccc(OCCN3CCCC3)cn2)Oc2ccc(O)cc21 (stereo not shown) [Example 6, 3-(3-Hydroxyphenyl)-4-methyl-2-(5-(2-(pyrrolidin-1-yl)ethoxy)pyridin-2-yl)-2H-chromen-6-ol] | 56.9 | 7.08 | 69.9 | 
CC1=C(c2cc(O)c(F)c(F)c2)C(c2ccc(OC[C@H](C)N3CC[C@@H](C)C3)cn2)Oc2ccc(O)cc21 (stereo partly drawn) [Example 7, 3-(3,4-Difluoro-5-hydroxyphenyl)-4-methyl-2-(5-((S)-2-((R)-3-methylpyrrolidin-1-yl)propoxy)pyridin-2-yl)-2H-chromen-6-ol] | 72.1 | 1.29 | 87.1 | 
CC1=C(c2ccc(O)cc2)C(c2ccc(OC[C@H](C)N3CC[C@@H](C)C3)cn2)Oc2ccc(O)cc21 (stereo partly drawn) [Example 8, 3-(4-Hydroxyphenyl)-4-methyl-2-(5-((S)-2-((R)-3-methylpyrrolidin-1-yl)propoxy)pyridin-2-yl)-2H-chromen-6-ol] | 69.3 | 1.36 | 85.9 | 
CC1=C(c2ccc(O)c(F)c2)C(c2ccc(OC[C@H](C)N3CC[C@@H](C)C3)cn2)Oc2ccc(O)cc21 (stereo partly drawn) [Example 9, 3-(3-Fluoro-4-hydroxyphenyl)-4-methyl-2-(5-((S)-2-((R)-3-methylpyrrolidin-1-yl)propoxy)pyridin-2-yl)-2H-chromen-6-ol] | 71.6 | 1.03 | 88 | 
CC1=C(c2ccc(O)cc2F)C(c2ccc(OC[C@H](C)N3CC[C@@H](C)C3)cn2)Oc2ccc(O)cc21 (stereo partly drawn) [Example 10, 3-(2-Fluoro-4-hydroxyphenyl)-4-methyl-2-(5-((S)-2-((R)-3-methylpyrrolidin-1-yl)propoxy)pyridin-2-yl)-2H-chromen-6-ol] | 70.9 | 0.74 | 83.4 | 
CC1=C(c2ccc3cn[nH]c3c2)C(c2ccc(OC[C@H](C)N3CC[C@@H](C)C3)cc2)Oc2ccc(O)cc21 (stereo partly drawn) [Example 11, 3-(1H-Indazol-6-yl)-4-methyl-2-(4-((S)-2-((R)-3-methylpyrrolidin-1-yl)propoxy)phenyl)-2H-chromen-6-ol] | 55.8 | 17 | 74.1 | 
CC1=C(c2ccc3[nH]ncc3c2)C(c2ccc(OC[C@H](C)N3CC[C@@H](C)C3)cc2)Oc2ccc(O)cc21 (stereo partly drawn) [Example 12, 3-(1H-Indazol-5-yl)-4-methyl-2-(4-((S)-2-((R)-3-methylpyrrolidin-1-yl)propoxy)phenyl)-2H-chromen-6-ol] | 60.1 | 2.56 | 74.8 | 
CC1=C(c2cccc3[nH]ncc23)C(c2ccc(OC[C@H](C)N3CC[C@@H](C)C3)cc2)Oc2ccc(O)cc21 (stereo partly drawn) [Example 13, 3-(1H-Indazol-4-yl)-4-methyl-2-(4-((S)-2-((R)-3-methylpyrrolidin-1-yl)propoxy)phenyl)-2H-chromen-6-ol] | 65.9 | 0.9 | 85.1 | 
CC1=C(c2cccc(O)c2)C(c2ccc(OC[C@H](C)N3CC[C@@H](C)C3)cc2)Oc2ccc3[nH]ncc3c21 (stereo partly drawn) [Example 14, 3-(9-Methyl-7-(4-((S)-2-((R)-3-methylpyrrolidin-1-yl)propoxy)phenyl)-3,7-dihydropyrano[3,2-e]indazol-8-yl)phenol] | 62.3 | 0.83 | 77.8 | 
CC1=C(c2cccc(O)c2)C(c2ccc(OC[C@H](C)N3CC[C@@H](C)C3)cc2)Oc2c1ccc1[nH]ncc21 (stereo partly drawn) [Example 15, 3-(4-Methyl-2-(4-((S)-2-((R)-3-methylpyrrolidin-1-yl)propoxy)phenyl)-2,7-dihydropyrano[2,3-e]indazol-3-yl)phenol] | 65.6 | 0.46 | 79.5 | 
CC1=C(/C=C/CO)C(c2ccc(OCCN3CC(CF)C3)cc2)Oc2ccc(O)cc21 (stereo not shown) [Example 52, 2-[4-[2-[3-(fluoromethyl)azetidin-1-yl]ethoxy]phenyl]-3-[(E)-3-hydroxyprop-1-enyl]-4-methyl-2H-chromen-6-ol] |  |  |  | 97.3
C[C@]12CC[C@@H]3c4ccc(O)cc4C[C@@H](CCCCCCCCC[S+]([O-])CCCC(F)(F)C(F)(F)F)[C@H]3[C@@H]1CC[C@@H]2O (stereo partly shown) [fulvestrant, reference compound] | 74.6 | 0.56 | 93.6 | 
